Laboratory results reported in patent US11498939B2, “Glucose polymers for peritoneal dialysis” (ROQUETTE FRERES, priority 2016, dated 2022).

Assay: Effects of the sterilization on GDP production
Format: physicochemical
Details: 4% solution in deionized water; sterilization at 121° C. for 15 minutes
Description: In this example, the inventors studied the influence of sterilization on the production of GDPs, namely 5-hydroxymethyl furaldehyde (5-HMF), furaldehyde and 3,4-dideoxyglucosone-3-ene (3,4-DGE), of solutions using various glucose polymers or glucose.
20 ml solutions containing 4% of each of the substances to be tested were prepared in deionized water. The GDP content was measured after sterilization at 121° C. for 15 minutes.
The 5-HMF and furaldehyde content was determined by liquid chromatography using 5-HMF standards (Merck—Ref. 8.206.78.001) or furaldehyde standards for the calibration respectively), and detection by UV spectrophotometry at 280 nm. For the chromatography, a column with a particle size of 9 μm, 8% crosslinking, an internal diameter of 7.8 mm and a length of 300 mm (HPX 87H column—Biorad—Ref. 125.0140) was used. The conditions were the following: eluent 5 mN H2SO4 […], flow rate of 0.8 ml/min.
The 3,4-DGE content was determined by liquid chromatography (using pyrazinecarboxamide (Sigma—Ref. P7136) for the calibration) and detection by UV spectrophotometry at 230 nm. For the chromatography, a column with a particle size of 5 μm, a pore size of 120 Å size, an internal diameter of 4.6 mm and a length of 15 cm (Supelcosil LC-18—Supelco—Ref. 58230) was used. The conditions were the following: elution solvent H2O/MeOH, flow rate of 1.0 ml/min.

## OC[C@H]1OC(O)[C@H](O)[C@@H](O)[C@@H]1O (stereo partly shown) [glucose, anhydrous dextrose]
  GDP content after sterilization (5-HMF, furaldehyde, 3,4-DGE): much higher than that of the glucose polymers
